We go through 11 compounds from patent US7550589B2, “6-(2-alkyl-phenyl)-pyrido[2,3-D]pyrimidines useful as protein kinase inhibitors” (Hoffman-La Roche Inc., priority 2004, dated 2009).

Molecules are shown by their SMILES.

In one test the target is T1, Src (p60^c-src) (Homo sapiens, UniProt P12931).
T1 construct: purchased UBI, Upstate Biotech, Inc
Briefly: SRC-Inhibitor-Assay, time-resolved fluorescence kinase assay (Src). It is filed as biochemical. The note with it: ATP 5 μM; peptide 10 μM; enzyme 2.5 U/ml; pre-incubated 15 min at 15° C. From the text: (§1) The activity of the compounds according to this invention as inhibitors for the src-family tyrosine kinases was shown by using the following assay.
(§2) SRC-Inhibitor-Assay Parameters:
(§3) Eu-labelled Phosphotyrosine Antibody: for Lck Cisbio Mab PT66-K, • for Src EG&G Wallac PT66 Eu-W1024 (all commercially available).
(§4) Peptides: Ro: NH2-A-E-E-E-I-Y-G-E-F-E-A-K-K-K-K-CONH2, and • Ja133-Ro: Ja133-G-Aminocaprylic acid-A-E-E-E-I-Y-G-E-F-E-A-K-K-K-K-CONH2, wherein Ja133 is LightCycler-Red 640-N-hydroxy succinimide ester; • whereby both peptides were synthesized by an optimized solid phase peptide synthesis protocol (Merrifield, Fed. Proc. Fed. Amer. Soc. Exp. Biol. 21 (1962) 412) on a Zinsser SMP350 peptide synthesizer. Shortly, the peptide was assembled on 160 mg (22.8 μmol scale) of a Rink-Linker modified polystyrene solid phase by repeatedly conjugating an twenty fold excess of amino acids each protected by temporary piperidine labile Fmoc- and permanent acid labile tert-Bu—, BOC- and O-tert-Bu-groups depending on the side chain function. The substrate sequence AEEEIYGEFEAKKKK was N-terminal additionally mounted with the spacer amino acids Aminocaprylic acid and Glycin. After cleavage of the N-terminal temporary protecting group the still attached and protected peptide was labeled with a 1.5 fold amount of LightCycler-Red 640-N-hydroxy succinimide ester (purchased from Roche Diagnostics GmbH) and triethylamine. After 3 hrs. the resin was washed with Dimethylformamide and Isopropanol until the eluates of the blue resin got colourless. […] The substrate was finally isolated by a preparative reverse phase HPLC purification. The purification yielded 12.2 mg RP-HPLC single peak pure blue material (lyophilisate). The identity was proven by MALDI mass spectroscopy [2720.0].
(§5) Enzymes: Upstate Lck (p56^lck, active), Upstate Src (p60^c-src, partially purified) were purchased from UBI, Upstate Biotech, Inc.
(§6) Time-resolved Fluorescence Assay: Reader: Perkin Elmer, Wallac Viktor 1420-040 multilabel counter; Liquid handling system: Beckman Coulter, Biomek 2000.
(§7) ATP, Tween™ 20, 4-(2-hydroxyethyl)-1-piperazineethanesulfonic acid (HEPES) were purchased from Roche Molecular Biochemicals, MgCl2 and MnCl2 were purchased from Merck Eurolab, Tris(2-carboxyethyl)phosphine hydrochloride (TCEP) was purchased from Pierce, 384 Well low volume fluorescence plates was purchased from Falcon.
(§8) At first the enzyme is pre-incubated for 15 min. at 15° C. in aqueous solution with corresponding amounts of inhibitors according to this invention. Then the phosphorylation reaction is started by adding a reaction mixture, containing ATP, Peptide and PT66, and subsequent shaking. The proceeding of this reaction is immediately monitored using time resolved fluorescence spectroscopy in a suitable well plate reader.
(§9) The IC50-values can be obtained from the reaction rates by using a non-linear curve fit (XLfit software (ID Business Solution Ltd., Guilford, Surrey, UK))

In the next test the target is T2, Lck (p56^lck) (Homo sapiens, UniProt P06239).
T2 construct: purchased UBI, Upstate Biotech, Inc
Briefly: SRC-Inhibitor-Assay, time-resolved fluorescence kinase assay (Lck). Format: biochemical. To be noted: ATP 5 μM; peptide 10 μM; enzyme 2.5 U/ml; pre-incubated 15 min at 15° C.
Source text: as §1, §2, §3, §4, §5, §6, §7, §8, §9

T2 sequence (P06239 whole entry, species assumed): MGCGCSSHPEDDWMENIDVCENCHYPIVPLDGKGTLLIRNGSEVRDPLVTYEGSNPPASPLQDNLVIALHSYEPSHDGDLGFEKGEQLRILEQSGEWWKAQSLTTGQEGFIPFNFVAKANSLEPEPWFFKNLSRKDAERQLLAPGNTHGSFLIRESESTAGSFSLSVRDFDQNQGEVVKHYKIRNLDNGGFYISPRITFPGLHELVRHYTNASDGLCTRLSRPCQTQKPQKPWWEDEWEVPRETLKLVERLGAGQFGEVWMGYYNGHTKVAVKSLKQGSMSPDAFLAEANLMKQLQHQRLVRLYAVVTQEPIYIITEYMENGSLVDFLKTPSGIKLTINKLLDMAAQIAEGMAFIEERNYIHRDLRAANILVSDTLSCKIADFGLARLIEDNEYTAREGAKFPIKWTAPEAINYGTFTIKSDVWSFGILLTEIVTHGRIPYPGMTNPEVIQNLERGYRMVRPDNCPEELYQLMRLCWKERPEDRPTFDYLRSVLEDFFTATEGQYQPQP
T1 sequence (P12931 whole entry): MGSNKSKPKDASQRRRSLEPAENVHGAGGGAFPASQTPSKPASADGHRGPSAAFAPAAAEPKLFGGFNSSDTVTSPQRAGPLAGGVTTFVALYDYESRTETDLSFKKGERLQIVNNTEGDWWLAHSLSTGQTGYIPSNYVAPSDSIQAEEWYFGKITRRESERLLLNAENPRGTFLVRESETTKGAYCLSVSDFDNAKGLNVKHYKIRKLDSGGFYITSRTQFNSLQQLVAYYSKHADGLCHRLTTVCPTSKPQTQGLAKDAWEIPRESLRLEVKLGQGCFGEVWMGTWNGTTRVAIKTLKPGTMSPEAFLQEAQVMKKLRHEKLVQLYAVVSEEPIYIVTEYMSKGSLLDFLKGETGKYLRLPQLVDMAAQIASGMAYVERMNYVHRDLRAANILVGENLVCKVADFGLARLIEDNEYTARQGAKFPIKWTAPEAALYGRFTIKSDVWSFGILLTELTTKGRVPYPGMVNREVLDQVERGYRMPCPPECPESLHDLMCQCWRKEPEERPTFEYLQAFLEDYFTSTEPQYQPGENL

As to `CC(=O)Nc1cccc(Nc2ncc3cc(-c4ccccc4C)c(C(=O)NC[C@H]4CCCN4)nc3n2)c1` [Example 1, (R)-2-(3-Acetylamino-phenylamino)-6-o-tolyl-pyrido[2,3-d]pyrimidine-7-carboxylic acid (pyrrolidin-2-ylmethyl)-amide], the IC50 (as a rule, the concentration needed to halve the response being measured) against Src (p60^c-src) was 0.7 nM; against Lck (p56^lck), 8 nM.

`CS(=O)(=O)NCCNC(=O)c1nc2nc(Nc3ccc4c(c3)S(=O)(=O)CCO4)ncc2cc1-c1ccccc1C(F)(F)F` [Example 2, 2-(4,4-Dioxo-3,4-dihydro-2H-4lambda*6*-benzo[1,4]oxathiin-6-ylamino)-6-(2-trifluoromethyl-phenyl)-pyrido[2,3-d]pyrimidine-7-carboxylic acid (2-methanesulfonylamino-ethyl)-amide]: the IC50 against Src (p60^c-src) was in the range of 5 to 50 nM; on Lck (p56^lck), 20 to 50 nM.

Take `CC(=O)Nc1cccc(Nc2ncc3cc(-c4ccccc4C)c(C(=O)NCCNS(C)(=O)=O)nc3n2)c1` [Example 3, 2-(3-Acetylamino-phenylamino)-6-o-tolyl-pyrido[2,3-d]pyrimidine-7-carboxylic acid (2-methanesulfonylamino-ethyl)-amide]: the values for the IC50 at Src (p60^c-src) and on Lck (p56^lck) were 1 nM and 11.8 nM, respectively.

With `Cc1ccccc1-c1cc2cnc(Nc3ccc(N4CCOCC4)cc3)nc2nc1C(=O)NCCNS(C)(=O)=O` [Example 5, 2-(4-Morpholin-4-yl-phenylamino)-6-o-tolyl-pyrido[2,3-d]pyrimidine-7-carboxylic acid (2-methanesulfonylamino-ethyl)-amide], the IC50 was 0.5 to 5 nM on Src (p60^c-src) and 1 to 20 nM at Lck (p56^lck).

Regarding `Cc1ccccc1-c1cc2cnc(Nc3ccc(N4CCOCC4)cc3)nc2nc1C(=O)NC[C@H]1CCCN1` [Example 7, (R)-2-(4-Morpholin-4-yl-phenylamino)-6-o-tolyl-pyrido[2,3-d]pyrimidine-7-carboxylic acid (pyrrolidin-2-ylmethyl)-amide], the IC50 against Src (p60^c-src) is 0.5 to 5 nM; against Lck (p56^lck), 1 to 20 nM.

For `CNCCNC(=O)c1nc2nc(Nc3cccc(NC(C)=O)c3)ncc2cc1-c1ccccc1C` [Example 8, 2-(3-Acetylamino-phenylamino)-6-o-tolyl-pyrido[2,3-d]pyrimidine-7-carboxylic acid (2-methylamino-ethyl)-amide], the IC50 was 0.5 to 5 nM at Src (p60^c-src) and 1 to 20 nM at Lck (p56^lck).

On to `CNCCNC(=O)c1nc2nc(Nc3cccc(NS(C)(=O)=O)c3)ncc2cc1-c1ccccc1C` [Example 9, 2-(3-Methanesulfonylamino-phenylamino)-6-o-tolyl-pyrido[2,3-d]pyrimidine-7-carboxylic acid (2-methylamino-ethyl)-amide], for which the IC50 at Src (p60^c-src) is 0.5 to 5 nM; against Lck (p56^lck), 1 to 20 nM.

Consider `CS(=O)(=O)NCCNC(=O)c1nc2nc(Nc3ccc(N4CCOCC4)cc3)ncc2cc1-c1ccccc1C(F)(F)F` [Example 11, 2-(4-Morpholin-4-yl-phenylamino)-6-(2-trifluoromethyl-phenyl)-pyrido[2,3-d]pyrimidine-7-carboxylic acid (2-methanesulfonylamino-ethyl)-amide], for which the IC50 at Src (p60^c-src) lay in the range of 0.5 to 5 nM; against Lck (p56^lck), 1 to 20 nM.

As for `O=C(NC[C@H]1CCCN1)c1nc2nc(Nc3ccc(N4CCOCC4)cc3)ncc2cc1-c1ccccc1C(F)(F)F` [Example 14, (R)-2-(4-Morpholin-4-yl-phenylamino)-6-(2-trifluoromethyl-phenyl)-pyrido[2,3-d]pyrimidine-7-carboxylic acid (pyrrolidin-2-ylmethyl)-amide], the IC50 was 0.5 to 5 nM at Src (p60^c-src) and 1 to 20 nM at Lck (p56^lck).

In the case of `CC(=O)Nc1cccc(Nc2ncc3cc(-c4ccccc4C(F)(F)F)c(C(=O)NC[C@H]4CCCN4)nc3n2)c1` [Example 15, (R)-2-(3-Acetylamino-phenylamino)-6-(2-trifluoromethyl-phenyl)-pyrido[2,3-d]pyrimidine-7-carboxylic acid (pyrrolidin-2-ylmethyl)-amide], the results for the IC50 on Src (p60^c-src) and at Lck (p56^lck) were 0.5 to 5 nM and 1 to 20 nM, respectively.

Take `O=C(NC[C@H]1CCCN1)c1nc2nc(Nc3ccc4c(c3)S(=O)(=O)CCO4)ncc2cc1-c1ccccc1C(F)(F)F` [Example 17, (R)-2-(4,4-Dioxo-3,4-dihydro-2H-4lambda*6*-benzo[1,4]oxathiin-6-ylamino)-6-(2-trifluoromethyl-phenyl)-pyrido[2,3-d]pyrimidine-7-carboxylic acid (pyrrolidin-2-ylmethyl)-amide]: the IC50 against Src (p60^c-src) lay within 5 to 50 nM; against Lck (p56^lck), 20 to 50 nM.
